Test results: US4570005A, “Process for the preparation of 2-arylpropyl ether or thioether derivatives” (priority 1980, dated 1986)

Tests used:
[1] = Test 9: Toxicity Test (acute oral toxicity, mice); settings: mouse, in vivo, po
Method: A predetermined amount of a solution or suspension of a test compound in corn oil was orally administered to male mice having a body weight of 19 to 23 g (0.2 ml per 10 g of the body weight). After 7 days, the number of killed mice was counted and the influences on the mice were examined.

[2] = tested on: tobacco cutworm; experiment: Test 1: Effect on Tobacco Cutworm (leaf immersion), mortality after 24 hours; format: in vivo; settings: second-instar larvae, 25° C
Method: (§1) To a mixture of 20 parts of the compound of the present invention and 20 parts of Sorpol SM-200 (registered tradename for the product supplied by Toho Chemical Industrial Co., Ltd.) was added 60 parts of xylol, and the mixture was suffciently blended. The obtained emulsifiable concentrate was diluted at a predetermined concentration with distilled water, and the obtained dilution was used.
An emulsifiable concentrate of a test compound prepared according to the method described in Formulation Example 1 was diluted to a concentration of 100 or 20 ppm. Sweet-potato leaves were immersed in the dilution for 10 seconds, air-dried and placed in a plastic cup having a diameter of 10 cm. Then second-instar larvae of tobacco cutworm were set free in the cup. The cup was allowed to stand still in a thermostat chamber maintained at 25° C. After 24 hours, the numbers of killed and living larvae were counted and the mortality was calculated. The obtained result was expressed by an average value obtained from the mortality calculated in three test cups.

[3] = tested on: German cockroach; experiment: Test 7: Effect on German Cockroach; format: in vivo; settings: Blattella germanica, male adults, agonized and killed after 24 hours, read-out: Mortality (%); for mortality at 10 mg/m2: 10 mg/m^2; for mortality at 50 mg/m2: 50 mg/m^2
Method: as §1
The bottom face of a high Petri dish having a diameter of 9 cm and a height of 9 cm was treated with 50 or 10 mg/m^2 of a test compound and the dish was air-dried. In order to prevent the adults from escaping from the dish, the inner wall of the dish was treated with butter. Then, 10 male adults of German cockroach were set free in each dish, and the dish was placed in a thermostat chamber maintained at 25° C. After 24 hours, the number of agonized and killed adults was counted. The test was made on two dishes and the average value was calculated.

[4] = tested on: sensitive green rice leafhopper (collected at Chigasaki); experiment: whole plant or invertebrate; format: in vivo; settings: Nephotettix cincticeps, sensitive female adults, 24 hours, read-out: Mortality (%), Green Rice Leafhopper Collected at Chigasaki
Method: as §1
(§2) Seedlings (having 2 to 3 leaves) of paddy rice were hydroponically cultured in a pot having a diameter of 5 cm. A chemical dilution having a concentration of 100 or 20 ppm, prepared in the same manner as described in Test 1, was applied with a sprayer at a rate of 3 ml per pot. The treated seedlings were air-dried and covered with a metal net cylinder, and female adults of resistant green rice leafhopper (collected at Nakagawara) and sensitive green rice leafhopper (collected at Chigasaki) were set, respectively, free in the pot at a density of 10 adults per pot. After 24 hours, the numbers of killed and living adults were counted and the mortality was calculated. The test was made on three pots and the average value was calculated.

[5] = tested on: resistant green rice leafhopper (collected at Nakagawara); experiment: Test 3: Effect on Resistant Green Rice Leafhopper (collected at Nakagawara); format: in vivo, Nephotettix cincticeps Uhler (Green rice leafhopper); settings: Nephotettix cincticeps, 24 h, read-out: Mortality (%), Green Rice Leafhopper Collected at Nakagawara
Method: as §1, §2

[6] = tested on: diamond back moth; experiment: Test 4: Effect on Diamond Back Moth; format: in vivo; settings: Plutella, third-instar larvae, 24 hours, read-out: Mortality (%)
Method: as §1
Cabbage leaves were spread in a plastic cup, and 10 third-instar larvae of diamond back moth were set free in the cup.
A chemical dilution having a concentration of 100 or 20 ppm, prepared in the same manner as described in Test 1, was applied from an applicator at a rate of 3 ml per cup.
After scattering of the chemical dilution, the cup was covered, and after 24 hours, the numbers of killed and living larvae were counted and the mortality was calculated. The test was made on three cups and the average value was calculated.

[7] = Test 8: Fish Toxicity; format: in vivo; settings: carp, water; concentration at which 1/2 of the test fishes were killed within 48 hours; read-out: Fish Toxicity, TLm48
Method: A water tank having a width of 60 cm, a length of 30 cm and a height of 40 cm was filled with water, and 10 yearling carps having a body length of about 5 cm were set free in the tank and adapted to the environment in the tank. A test compound was applied so that the concentration in water was 10, 1 or 0.1 ppm. After 48 hours, the numbers of killed and living carps were counted and the influences on the fishes were examined.

[8] = tested on: tobacco cutworm; experiment: Test 2: Tobacco Cutworm Larva Dipping Test, mortality after 24 hours; format: in vivo; settings: 24 hours
Method: as §1
A dilution having a chemical concentration of 100 or 20 ppm was prepared in the same manner as described in Test 1.
Second-instar and fifth-instar larvae of tobacco cutworm were dipped in the dilution for 5 seconds, and the excessive dilution was removed by a filter paper. Then, the larvae were set free in a plastic cup and an artificial diet was supplied thereto. The cup was allowed to stand still in a thermostat chamber maintained at 25° C. After 24 hours, the numbers of the killed and living larvae were counted and the mortality was calculated. The test was made on three cups and the result was expressed by an average value.

[9] = fifth-instar larvae, read-out: Motality (%), Fifth-Instar Larvae
[10] = second-instar larvae, read-out: Motality (%), Second-Instar Larvae

Compound | LD50 at 168 h [1] | mortality at 20 ppm [2] | mortality at 100 ppm [2] | mortality at 10 mg/m2 [3] | mortality at 50 mg/m2 [3] | mortality at 20 ppm [4] | mortality at 100 ppm [4] | mortality at 20 ppm [5] | mortality at 100 ppm [5] | mortality at 20 ppm [6] | mortality at 100 ppm [6] | LC50 at 48 h [7] | mortality at 20 ppm [8, 9] | mortality at 20 ppm [8, 10] | mortality at 100 ppm [8, 9] | mortality at 100 ppm [8, 10]
CC(C)(COCc1cccc(Oc2ccccc2)c1)c1ccc(I)cc1 [Compound 65, 3-Phenoxybenzyl 2-(4-iodophenyl)-2-methylpropyl ether] | > 500 mg/kg | 90% | 100% | 90% | 100% | 100% | 100% | 100% | 100% | – | – | – | – | – | – | –
CC(C)(COCc1cccc(Oc2ccccc2)c1)c1ccc(SC(F)(F)F)cc1 [Compound 104, 3-Phenoxybenzyl 2-(4-trifluoromethylthiophenyl)-2-methylpropyl ether] | > 500 mg/kg | – | – | 90% | 100% | – | – | – | – | 70% | 100% | – | – | – | – | –
CC(C)(COCc1cccc(Oc2ccccc2)c1)c1ccc(F)cc1 [Compound 51, 3-Phenoxybenzyl 2-(4-fluorophenyl)-2-methylpropyl ether] | > 500 mg/kg | 100% | 100% | – | – | 100% | 100% | 100% | 100% | – | – | > 1 µg/mL | – | – | – | –
CC(C)(COCc1cccc(Oc2ccccc2)c1)c1ccc([N+](=O)[O-])cc1 [Compound 43, 3-Phenoxybenzyl 2-(4-nitrophenyl)-2-methylpropyl ether] | > 500 mg/kg | 85% | 100% | 100% | 100% | 90% | 100% | 100% | 100% | – | – | – | – | – | – | –
CC(C)(COCc1cccc(Oc2ccc(F)cc2)c1)c1cccc(C(F)(F)F)c1 [Compound 23, 3-(4-Fluorophenoxy)benzyl 2-(3-trifluoromethylphenyl)-2-methylpropyl ether] | > 500 mg/kg | 80% | 100% | – | – | – | – | – | – | – | – | > 1 µg/mL | – | – | – | –
COc1ccc(Oc2cccc(COCC(C)(C)c3ccccc3)c2)cc1 [Compound 13, 3-(4-methoxyphenoxy)benzyl 2-phenyl-2-methylpropyl ether] | > 500 mg/kg | – | – | – | – | 50% | 100% | 70% | 100% | – | – | > 10 µg/mL | – | – | – | –
CC(C)(COCc1cccc(Oc2ccc(Br)cc2)c1)c1ccc(Cl)c(Cl)c1 [Compound 21, 3-(4-Bromophenoxy)benzyl 2-(3,4-dichlorophenyl)-2-methylpropyl ether] | > 500 mg/kg | – | – | – | – | 60% | 100% | 85% | 100% | – | – | > 10 µg/mL | – | – | – | –
CC(F)(F)Oc1ccc(C(C)(C)COCc2cccc(Oc3ccccc3)c2)cc1 [Compound 79, 3-Phenoxybenzyl 2-[4-(1,1-difluoroethoxy)phenyl]-2-methylpropyl ether] | > 500 mg/kg | – | – | 100% | 100% | – | – | – | – | – | – | – | 50% | 80% | 90% | 100%
Cc1ccc(Oc2cccc(COCC(C)(C)c3ccc(Cl)cc3)c2)cc1 [Compound 19, 3-(4-methylphenoxy)benzyl 2-(4-chlorophenyl)-2-methylpropyl ether] | > 500 mg/kg | – | – | – | – | 90% | 100% | 100% | 100% | – | – | > 10 µg/mL | – | – | – | –
CC(C)(COCc1cccc(Oc2ccc(F)cc2)c1)c1ccc(Cl)c(Cl)c1 [Compound 17, 3-(4-fluorophenoxy)benzyl 2-(3,4-dichlorophenyl)-2-methylpropyl ether] | > 500 mg/kg | 80% | 100% | 100% | 100% | 100% | 100% | 100% | 100% | 90% | 100% | – | – | – | – | –
C=COc1ccc(C(C)(C)COCc2cccc(Oc3ccccc3)c2)cc1 [Compound 67, 3-Phenoxybenzyl 2-(4-vinyloxyphenyl)-2-methylpropyl ether] | > 500 mg/kg | 90% | 100% | 100% | 100% | – | – | – | – | 90% | 100% | – | 100% | 100% | 100% | 100%
CC(C)(COCc1cccc(Oc2ccccc2)c1)c1ccc(Br)cc1 [Compound 107, 3-Phenoxybenzyl 2-(4-bromophenyl)-2-methylpropyl ether] | > 500 mg/kg | – | – | – | – | 100% | 100% | 100% | 100% | – | – | > 1 µg/mL | – | – | – | –
CC1(C)C(C=C(Cl)Cl)C1C(=O)OCc1cccc(Oc2ccccc2)c1 (centres unmarked) [(i), Permethrin, reference compound] | – | – | – | – | – | – | – | – | – | – | – | < 0.005 µg/mL | – | – | – | –
CC(C)(COCc1cccc(Oc2ccccc2)c1)c1ccc(OC(F)(F)CI)cc1 [Compound 74, 3-Phenoxybenzyl 2-[4-(1,1-difluoro-2-iodoethoxy)phenyl]-2-methylpropyl ether] | > 500 mg/kg | 100% | 100% | 100% | 100% | – | – | – | – | – | – | – | 50% | 70% | 80% | 100%
CC(C)(COCc1cccc(Oc2cccc(Cl)c2)c1)c1ccc(Cl)c(Cl)c1 [Compound 38, 3-(3-Chlorophenoxy)benzyl 2-(3,4-dichlorophenyl)-2-methylpropyl ether] | > 500 mg/kg | – | – | 90% | 100% | 80% | 100% | 95% | 100% | – | – | – | – | – | – | –
CC(C)C(C(=O)OC(C#N)c1cccc(Oc2ccccc2)c1)c1ccc(Cl)cc1 (centres unmarked) [Comparative Compound (a), reference compound] | 260 mg/kg | – | – | – | – | – | – | – | – | – | – | < 0.005 µg/mL | – | – | – | –
